Data on one compound can be found in US8916681B2, “Compound, use and method” (Medical Research Council, priority 2007, dated 2014).

Common to all, as to assay type: cell-based
Assay [1] concerns HUVECs (Human Umbilical Vein Endothelial Cells). Put plainly: Cell migration (wound healing) assay in HUVECs. The following applies: 22 hrs. Here is the method:
Human Umbilical Vein Endothelial Cells (HUVECs) isolated from neonatal umbilical cord were used as they endogenously express gpr-54, which is though to be involved in cell migration in the placenta. Chinese hamster ovary (CHO) cells which stably express the human gpr-54 receptor were used as a model cell line for wound healing assays. […] Complete media was added along with 1 nM Kisspeptin-10 for HUVECs and 100 nM Kisspeptin-10 for CHO cells, the optimal concentrations to inhibit cell migration (wound healing) in each cell type, in the presence and absence of antagonist 233, 234, 273 and 276 for HUVECs and 234 for CHOs. […] Cells were photographed on the axiovert 2000 at 20× magnification in phase contrast (Hori et al., 2001. Metastin suppresses the motility and growth of CHO cells transfected with its receptor. Biochem Biophys Res Commun 286, 958-963; Stafford et al., 2002, Identification and characterization of mouse metastasis-suppressor KiSS1 and its G-protein-coupled receptor. Cancer Res 62, 5399-5404).

The target of assay [2] is T1, GPR54 (Homo sapiens, UniProt Q969F8). Put plainly: Inositol phosphate (IP) stimulation assay in CHO/gpr-54 cells. Set-up: G. Vassart, Univ; Brussels. The following applies: CHO cells stably-expressing human gpr-54.
T1 sequence (Q969F8 whole entry): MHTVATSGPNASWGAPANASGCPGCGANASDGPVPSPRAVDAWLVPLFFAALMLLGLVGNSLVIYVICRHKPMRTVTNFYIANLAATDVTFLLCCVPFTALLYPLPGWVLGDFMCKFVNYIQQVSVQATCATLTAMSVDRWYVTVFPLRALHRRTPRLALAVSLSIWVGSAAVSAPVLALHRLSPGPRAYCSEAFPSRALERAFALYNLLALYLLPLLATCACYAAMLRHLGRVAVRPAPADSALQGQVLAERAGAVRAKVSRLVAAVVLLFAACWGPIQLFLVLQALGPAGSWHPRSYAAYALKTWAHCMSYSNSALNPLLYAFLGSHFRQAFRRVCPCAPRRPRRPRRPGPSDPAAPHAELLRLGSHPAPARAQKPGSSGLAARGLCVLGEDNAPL
Description: Inositol-3-phoshate Stimulation Assay—Cell monolayers had 0.5 mls HEPES modified DMEM supplemented with 1% Penicillin/Streptomycin for 30 mins at 37° C. to block IP3 breakdown. Cells were then stimulated with 0.5 mls Kisspeptin-10 and analogues (10 pM-1 uM) diluted at 1:1000 in the above media for 1 hr at 37° C., then in 10 mM Formic acid at 4° C. for 1 hr to lyse cells. Lysate was then transferred to plastic tubes containing 0.5 mls Dowex resin to bind the radioactive IP3 and the resin was then washed with 1 ml H2O. The resin was then washed with 60 mM NH4 formate/5 mM Sodium tetraborate followed by 1M NH4 formate/0.1M Formic acid to release the bound radiation. Then 800 μls of the radioactive solution were transferred to scintillation vials containing 2.5 mls scintillation fluid and radioactivity counted on a Beta counter for 60 seconds.
IP stimulation refers to intrinsic residual agonist activity where estimateable.
The cells were maintained in Dulbecco's modified Eagle's medium (DMEM; Sigma) supplemented with 10% fetal calf serum, 2% glutamine and 1% penicillin (10,000 units/ml)/streptomycin (10,000 mg/ml) at 37° C. in a humidified 5% CO2 atmosphere.
Prior to stimulation CHO/gpr-54 cells were washed twice with Dulbecco's phosphate-buffered saline (DPBS; without calcium or magnesium) then incubated overnight with ^3H-myoinositol, labeled HEPES-modified DMEM with 1% penicillin/streptomycin at 37° C. HEPES-modified DMEM supplemented with 1% penicillin/streptomycin and 1% lithium chloride (0.5 ml) was added to cells for 30 min at 37° C. to block IP hydrolysis. Cells were then stimulated with 0.5 ml kisspeptin-10 and analogues (10 pM-1 μM) diluted at 1:100 in the above media for 1 h at 37° C., then with 10 mM formic acid at 4° C. for 1 h to lyse cells. Lysates were transferred to plastic tubes containing 0.5 ml Dowex resin to bind the radioactive IP and the resin was then washed with 1 ml water. The resin was next washed with 60 mM ammonium formate/5 mM sodium tetraborate. followed by 1M ammonium formate/0.1M formic acid to release the bound radiation. Then 800 μl of the radioactive solution were transferred to scintillation vials containing 2.5 ml scintillation fluid and radioactivity counted on a Beta counter for 60 sec. Experiments were repeated 3-5 times. IP production was plotted as mean values±SEM and analyzed by using a Student's t-Test (p≧0.05).
The target in assay [3] is T1, GPR54. In words: Inositol phosphate (IP) antagonism assay: inhibition of 10 nM kisspeptin-10 stimulation of IP in CHO/gpr-54 cells. The following applies: CHO cells; 10 nM kisspeptin-10; unit inferred, given in M. Set-up: G. Vassart, Univ; Brussels. On the procedure:
Inositol-3-phoshate Antagonistic Assay—Cell monolayers had 0.5 mls HEPES modified DMEM supplemented with […] for 30 mins at 37° C. to block IP3 breakdown. Cells were then stimulated with 0.25 mls 10 nM Kisspeptin-10 plus 0.25 mls of 10 nM Kisspeptin-10 or analogues (10 pM-10 uM) diluted at 1:1000 in the above media for 1 hr at 37° C., then in 10 mM Formic acid at 4° C. for 1 hr to lyse cells. Lysate was then transferred to plastic tubes containing 0.5 mls Dowex resin to bind the radioactive IP3 and the resin was then washed with 1 ml H2O. The resin was then washed with 60 mM NH4 formate/5 mM Sodium tetraborate followed by 1M NH4 formate/0.1M Formic acid to release the bound radiation. Then 800 μls of the radioactive solution were transferred to scintillation vials containing 2.5 mls scintillation fluid and radioactivity counted on a Beta counter for 60 seconds.
Chinese hamster ovary (CHO) cells stably-expressing the human gpr-54 receptor (CHO/gpr-54) were obtained from Prof. G. Vassart, Univ. Brussels. The cells were maintained in Dulbecco's modified Eagle's medium (DMEM; Sigma) supplemented with 10% fetal calf serum, 2% glutamine and 1% penicillin (10,000 units/ml)/streptomycin ([…]) at 37° C. in a humidified 5% CO2 atmosphere.
Experiments were repeated 3-5 times. IP production was plotted as mean values±SEM and analyzed using a Student's t-Test ([…]).

Broadly, the IC50 is the midpoint of a concentration-inhibition curve. Higher therefore signals weaker potency in that assay.

Non-standard residues stand in square brackets, D forms with d. Residues, ends and D or L forms follow the SMILES beside them.

Consider `CC(=O)N[C@@H](Cc1ccc(O)cc1)C(=O)N[C@@H](CC(N)=O)C(=O)N[C@@H](Cc1c[nH]c2ccccc12)C(=O)N[C@@H](CC(N)=O)C(=O)N[C@H](C)C(=O)N[C@@H](Cc1ccccc1)C(=O)NCC(=O)N[C@H](Cc1c[nH]c2ccccc12)C(=O)N[C@@H](CCCNC(=N)N)C(=O)N[C@@H](Cc1ccccc1)C(N)=O` [Peptide 233] (Ac-YNWN[dA]FG[dW]RF-NH2), for which the “inhibition of migration by 1 nM Kisspeptin in the presence of peptide” value in assay [1] is 10%. Besides, the “stimulation of IP by the peptide alone” value in assay [2] is “little or no stimulation”. Besides, in assay [3], the IC50 amounted to 20 nM.
